Assay results from the NIST ThermoML archive (doi:10.1016/j.jct.2007.08.002).
Several values for one entry are separate records, joined by “and”; a condition that tells them apart may be missing. Identical values can stand only once.

Settings: for vapor or sublimation pressure: Crystal 1; for Triple point temperature: Adiabatic calorimetry

NC12CC3CC(CC(C3)C1)C2 [tricyclo(3.3.1.1:3,7)decan-1-amine]
Settings	vapor or sublimation pressure
291.05 K, Calculated from knudsen effusion weight loss	0.00621 kPa
291.07 K, Calculated from knudsen effusion weight loss	0.00627 kPa
291.2 K, Transpiration method	0.00632 kPa
293.54 K, Calculated from knudsen effusion weight loss	0.00757 kPa
293.55 K, Calculated from knudsen effusion weight loss	0.00752 kPa
294.2 K, Transpiration method	0.00832 kPa
297.1 K, Transpiration method	0.0107 kPa
300.1 K, Transpiration method	0.0137 kPa
303.2 K, Transpiration method	0.0186 kPa
305.6 K, Transpiration method	0.0223 kPa
305.94 K, Calculated from knudsen effusion weight loss	0.0211 kPa
305.98 K, Calculated from knudsen effusion weight loss	0.0204 kPa
308.1 K, Transpiration method	0.027 kPa
308.52 K, Calculated from knudsen effusion weight loss	0.0263 kPa
310.4 K, Transpiration method	0.0291 kPa
310.94 K, Calculated from knudsen effusion weight loss	0.0309 kPa and 0.0315 kPa
313.2 K, Transpiration method	0.0396 kPa
318 K, Transpiration method	0.0535 kPa
318.3 K, Transpiration method	0.0549 kPa
323.3 K, Transpiration method	0.0777 kPa
328.1 K, Transpiration method	0.108 kPa
333.4 K, Transpiration method	0.148 kPa and 0.153 kPa
338.3 K, Transpiration method	0.2 kPa
338.5 K, Transpiration method	0.205 kPa
343.4 K, Transpiration method	0.269 kPa
343.6 K, Transpiration method	0.286 kPa

Settings	mass density [kg/m3]
298.15 K, 101.33 kPa, Crystal 3, Pycnometric method	1100

Settings	Triple point temperature [K]
Crystal 2	284.6
Crystal 3	241.4
